Measurements reported in ChEMBL document CHEMBL4052829, “Identification of a Novel Hybridization from Isosorbide 5-Mononitrate and Bardoxolone Methyl with Dual Activities of Pulmonary Vasodilation and Vascular Remodeling Inhibition on Pulmonary Arterial Hypertension Rats” (J Med Chem, 2018).
Each block holds one molecule with its values, some of them ahead of it. Activity calls are given as the source filed them. The calls are words filed in the database; no cut-off is given here.

Legend:
Rattus norvegicus [1] = assay: Pulmonary vasodilatory effect in MCT-induced Sprague-Dawley rat pulmonary arterial hypertension model assessed as weight ratio of right ventricle to left ventricle and septum at 2.1 ug/kg, inhaled daily for 28 days (reference value: 0.4796 +/- 0.030); type: functional
Plasma [2] = assay: Drug level in Sprague-Dawley rat plasma treated with CDDO-NO at 1 mg/ml administered in trachea after 15 to 720 mins by LC-MS/MS analysis; type: ADME, cell-free; settings: inhaled_or_intranasal
[3] = Drug uptake in Sprague-Dawley rat lung at 1 mg/ml administered in trachea after 60 mins by LC-MS/MS analysis; type: ADME, tissue-based; settings: inhaled or intranasal, read-out: Drug uptake
Rattus norvegicus [4] = assay: Pulmonary vasodilatory effect in MCT-induced Sprague-Dawley rat pulmonary arterial hypertension model assessed as mean pulmonary artery pressure at 2.1 ug/kg, inhaled daily for 28 days by polygraph method (reference value: 30.63 +/- 1.16 mmHg); type: functional
Rattus norvegicus [5] = assay: Pulmonary vasodilatory effect in MCT-induced Sprague-Dawley rat pulmonary arterial hypertension model assessed as weight ratio of right ventricle to left ventricle and septum at 2.1 ug/kg, inhaled daily for 28 days co-administered with ISMN (reference value: 0.4796 +/- 0.030); type: functional
Rattus norvegicus [6] = assay: Pulmonary vasodilatory effect in MCT-induced Sprague-Dawley rat pulmonary arterial hypertension model assessed as right ventricular systolic pressure at 2.1 ug/kg, inhaled daily for 28 days co-administered with ISMN by polygraph method (reference value: 56.09 +/- 3.24 mmHg); type: functional
Rattus norvegicus [7] = assay: Pulmonary vasodilatory effect in MCT-induced Sprague-Dawley rat pulmonary arterial hypertension model assessed as right ventricular systolic pressure at 2.1 ug/kg, inhaled daily for 28 days by polygraph method (reference value: 56.09 +/- 3.24 mmHg); type: functional
Lung [8] = assay: Drug level in Sprague-Dawley rat lung treated with CDDO-NO at 1 mg/ml administered in trachea after 90 to 720 mins by LC-MS/MS analysis; type: ADME, tissue-based; settings: in vivo, inhaled_or_intranasal
Lung [9] = assay: (§1) Drug uptake in Sprague-Dawley rat lung at 1 mg/ml administered in trachea after 180 mins by LC-MS/MS analysis; type: ADME; settings: in vivo, inhaled_or_intranasal, 3 h, BLD = below limit of detection
[10] = as §1; type: ADME; settings: Sprague-Dawley, lung, inhaled or intranasal, 1 mg/ml, read-out: Drug uptake
Rattus norvegicus [11] = assay: Pulmonary vasodilatory effect in MCT-induced Sprague-Dawley rat pulmonary arterial hypertension model assessed as mean pulmonary artery pressure at 2.1 ug/kg, inhaled daily for 28 days co-administered with ISMN by polygraph method (reference value: 30.63 +/- 1.16 mmHg); type: functional
[12] = Drug uptake in Sprague-Dawley rat lung at 1 mg/ml administered in trachea after 360 mins by LC-MS/MS analysis; type: ADME, tissue-based; settings: inhaled or intranasal, read-out: Drug uptake
Rattus norvegicus [13] = assay: Pulmonary vasodilatory effect in MCT-induced Sprague-Dawley rat pulmonary arterial hypertension model assessed as right ventricular systolic pressure at 0.78 ug/kg, inhaled daily for 28 days co-administered with CDDO-Me by polygraph method (reference value: 56.09 +/- 3.24 mmHg); type: functional
Rattus norvegicus [14] = assay: Pulmonary vasodilatory effect in MCT-induced Sprague-Dawley rat pulmonary arterial hypertension model assessed as right ventricular systolic pressure at 0.78 ug/kg, inhaled daily for 28 days by polygraph method (reference value: 56.09 +/- 3.24 mmHg); type: functional
Rattus norvegicus [15] = assay: Pulmonary vasodilatory effect in MCT-induced Sprague-Dawley rat pulmonary arterial hypertension model assessed as mean pulmonary artery pressure at 0.78 ug/kg, inhaled daily for 28 days co-administered with CDDO-Me by polygraph method (reference value: 30.63 +/- 1.16 mmHg); type: functional
Rattus norvegicus [16] = assay: Pulmonary vasodilatory effect in MCT-induced Sprague-Dawley rat pulmonary arterial hypertension model assessed as mean pulmonary artery pressure at 0.78 ug/kg, inhaled daily for 28 days by polygraph method (reference value: 30.63 +/- 1.16 mmHg); type: functional
Rattus norvegicus [17] = assay: Pulmonary vasodilatory effect in MCT-induced Sprague-Dawley rat pulmonary arterial hypertension model assessed as weight ratio of right ventricle to left ventricle and septum at 0.78 ug/kg, inhaled daily for 28 days (reference value: 0.4796 +/- 0.030); type: functional
Rattus norvegicus [18] = assay: Pulmonary vasodilatory effect in MCT-induced Sprague-Dawley rat pulmonary arterial hypertension model assessed as weight ratio of right ventricle to left ventricle and septum at 0.78 ug/kg, inhaled daily for 28 days co-administered with CDDO-Me (reference value: 0.4796 +/- 0.030); type: functional
Rattus norvegicus [19] = assay: Inhibition of vascular remodeling in MCT-induced Sprague-Dawley rat pulmonary arterial hypertension model assessed as decrease in MCT-induced macrophage infiltration in perivascular tissue at 3 ug/kg, inhaled daily for 28 days by immunohistochemical method; type: functional
Rattus norvegicus [20] = assay: Inhibition of cardiac fibrosis in MCT-induced Sprague-Dawley rat pulmonary arterial hypertension model at 3 ug/kg, inhaled daily for 28 days by picro-sirius red staining-based assay; type: functional
Rattus norvegicus [21] = assay: Pulmonary vasodilatory effect in MCT-induced Sprague-Dawley rat pulmonary arterial hypertension model assessed as reversal of MCT-induced ET-1 elevation in plasma at 3 ug/kg, inhaled daily for 28 days by ELISA; type: functional
Rattus norvegicus [22] = assay: Inhibition of vascular remodeling in MCT-induced Sprague-Dawley rat pulmonary arterial hypertension model assessed as reduction of MCT-induced medial thickness of pulmonary artery at 3 ug/kg, inhaled daily for 28 days by hematoxylin and eosin staining-based assay; type: functional
Rattus norvegicus [23] = assay: Inhibition of oxidative response in lung of MCT-induced Sprague-Dawley rat pulmonary arterial hypertension model assessed as decrease in ratio of NOX4 positive cells and NOX4 expression at 3 ug/kg, inhaled daily for 28 days by immunohistochemical method; type: functional
Lung [24] = assay: Drug metabolism in Sprague-Dawley rat lung assessed as formation of CDDO-Me at 1 mg/ml administered in trachea after 90 mins by LC-MS/MS analysis; type: ADME, tissue-based; settings: in vivo, inhaled_or_intranasal, 1.5 h
Rattus norvegicus [25] = assay: Inhibition of vascular remodeling in MCT-induced Sprague-Dawley rat pulmonary arterial hypertension model assessed as downregulation of MCT-induced up-expression of alpha-SMA at 3 ug/kg, inhaled daily for 28 days by Western blot method; type: functional
Rattus norvegicus [26] = assay: Pulmonary vasodilatory effect in MCT-induced Sprague-Dawley rat pulmonary arterial hypertension model assessed as mean pulmonary artery pressure at 3 ug/kg, inhaled daily for 28 days by polygraph method (reference value: 30.63 +/- 1.16 mmHg); type: functional
Rattus norvegicus [27] = assay: Pulmonary vasodilatory effect in MCT-induced Sprague-Dawley rat pulmonary arterial hypertension model assessed as weight ratio of right ventricle to left ventricle and septum at 3 ug/kg, inhaled daily for 28 days (reference value: 0.4796 +/- 0.030); type: functional
Plasma [28] = assay: Drug metabolism in Sprague-Dawley rat plasma assessed as formation of CDDO-Me at 1 mg/ml administered in trachea after 15 to 720 mins by LC-MS/MS analysis; type: ADME, cell-free; settings: inhaled_or_intranasal
[29] = molecular target: T1, Nuclear factor erythroid 2-related factor 2 (Rattus norvegicus) (UniProt O54968); assay: Induction of Nrf2 translocation to nucleus of rat pulmonary artery endothelial cells at 1 uM after 24 hrs by immunofluorescence assay
T1 sequence (whole entry): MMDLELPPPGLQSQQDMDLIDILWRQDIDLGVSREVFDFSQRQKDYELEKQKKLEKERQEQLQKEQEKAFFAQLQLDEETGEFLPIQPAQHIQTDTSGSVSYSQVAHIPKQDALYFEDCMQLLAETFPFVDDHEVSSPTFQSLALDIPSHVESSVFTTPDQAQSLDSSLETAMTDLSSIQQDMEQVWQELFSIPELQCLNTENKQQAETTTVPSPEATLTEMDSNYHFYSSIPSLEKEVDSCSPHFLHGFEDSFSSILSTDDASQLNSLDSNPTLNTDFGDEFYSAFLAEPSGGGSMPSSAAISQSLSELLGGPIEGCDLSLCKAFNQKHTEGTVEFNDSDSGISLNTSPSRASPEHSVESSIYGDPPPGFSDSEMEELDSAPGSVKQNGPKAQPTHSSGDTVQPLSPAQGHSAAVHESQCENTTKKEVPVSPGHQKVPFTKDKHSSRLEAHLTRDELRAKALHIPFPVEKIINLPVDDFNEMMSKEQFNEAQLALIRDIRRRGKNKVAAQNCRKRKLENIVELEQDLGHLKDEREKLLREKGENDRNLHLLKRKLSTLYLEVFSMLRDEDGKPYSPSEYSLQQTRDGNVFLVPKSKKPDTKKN

Rattus norvegicus [30] = assay: Inhibition of vascular remodeling in MCT-induced Sprague-Dawley rat pulmonary arterial hypertension model assessed as reduction of MCT-induced pulmonary vascular muscularization by measuring downregulation of alpha-SMA levels at 3 ug/kg, inhaled daily for 28 days by immunohistochemical method; type: functional
Rattus norvegicus [31] = assay: Inhibition of vascular remodeling in MCT-induced Sprague-Dawley rat pulmonary arterial hypertension model assessed as decrease in MCT-induced collagen-1 expression in lung at 3 ug/kg, inhaled daily for 28 days by Western blot method; type: functional
Rattus norvegicus [32] = assay: Pulmonary vasodilatory effect in MCT-induced Sprague-Dawley rat pulmonary arterial hypertension model assessed as right ventricular systolic pressure at 3 ug/kg, inhaled daily for 28 days by polygraph method (reference value: 56.09 +/- 3.24 mmHg); type: functional
Lung [33] = assay: Drug metabolism in Sprague-Dawley rat lung assessed as formation of CDDO-Me at 1 mg/ml administered in trachea after 12 hrs by LC-MS/MS analysis; type: ADME, tissue-based; settings: in vivo, inhaled_or_intranasal
Rattus norvegicus [34] = assay: Inhibition of cardiomyocyte hypertrophy in MCT-induced Sprague-Dawley rat pulmonary arterial hypertension model at 3 ug/kg, inhaled daily for 28 days by hematoxylin and eosin staining-based assay; type: functional
Rattus norvegicus [35] = assay: Inhibition of vascular remodeling in MCT-induced Sprague-Dawley rat pulmonary arterial hypertension model assessed as decrease in MCT-induced TGF-beta expression in lung at 3 ug/kg, inhaled daily for 28 days by Western blot method; type: functional
Rattus norvegicus [36] = assay: Pulmonary vasodilatory effect in MCT-induced Sprague-Dawley rat pulmonary arterial hypertension model assessed as reversal of MCT-induced nitric oxide reduction in plasma at 3 ug/kg, inhaled daily for 28 days by Griess assay; type: functional
Rattus norvegicus [37] = assay: Inhibition of vascular remodeling in MCT-induced Sprague-Dawley rat pulmonary arterial hypertension model assessed as decrease in MCT-induced perivascular fibrosis at 3 ug/kg, inhaled daily for 28 days by masson's trichrome staining-based assay; type: functional
Rattus norvegicus [38] = assay: Inhibition of vascular remodeling in MCT-induced Sprague-Dawley rat pulmonary arterial hypertension model assessed as decrease in MCT-induced increment of PCNA positive cells in lung at 3 ug/kg, inhaled daily for 28 days by immunohistochemical method; type: functional
Rattus norvegicus [39] = assay: Inhibition of oxidative response in lung of MCT-induced Sprague-Dawley rat pulmonary arterial hypertension model assessed as decrease in ratio of NOX4 positive cells and NOX4 expression at 3 ug/kg, inhaled daily for 28 days by Western blot method; type: functional

- Drug metabolism (Plasma [2]): Metabolite_Detected
- concentration at 1 h [3]: 0.18 to 0.444 µg/mL
- Drug metabolism (Lung [8]): Metabolite_Detected
- Drug uptake (Lung [9]): Bld
- concentration at 3 h [10]: 0.0448 µg/mL
- concentration at 6 h [12]: 0.0034 µg/mL
Compound: COC(=O)[C@]12CCC(C)(C)C[C@H]1[C@H]1C(=O)C=C3[C@@]4(C)C=C(C#N)C(=O)C(C)(C)[C@@H]4CC[C@@]3(C)[C@]1(C)CC2 [BARDOXOLONE METHYL]
- Ratio (Rattus norvegicus [1]): 0.5123
- Activity (Rattus norvegicus [4]): 26.29 mmHg
- Ratio (Rattus norvegicus [5]): 0.4898
- Activity (Rattus norvegicus [6]): 60.12 mmHg
- Activity (Rattus norvegicus [7]): 61.24 mmHg
- Activity (Rattus norvegicus [11]): 27.3 mmHg

Compound: O=[N+]([O-])O[C@@H]1CO[C@H]2[C@@H]1OC[C@H]2O
- Activity (Rattus norvegicus [13]): 60.12 mmHg
- Activity (Rattus norvegicus [14]): 60.76 mmHg
- Activity (Rattus norvegicus [15]): 27.3 mmHg
- Activity (Rattus norvegicus [16]): 25.11 mmHg
- Ratio (Rattus norvegicus [17]): 0.4844
- Ratio (Rattus norvegicus [18]): 0.4898

- concentration at 1 h [3]: 0.243 µg/mL
- Drug metabolism (Lung [24]): 78.5 ng/mL
- Drug metabolism (Plasma [28]): Metabolite_Detected
- Activity [29]: Active
- Drug metabolism (Lung [33]): 15.9 ng/mL
Compound: COC(=O)[C@]12CCC(C)(C)C[C@H]1[C@H]1C(=O)C=C3[C@@]4(C)C(O[C@@H]5CO[C@H]6[C@@H]5OC[C@H]6O[N+](=O)[O-])C(C#N)=C(OC(C)=O)C(C)(C)[C@@H]4CC[C@@]3(C)[C@]1(C)CC2 (stereo not given in full)
- inhibition (Rattus norvegicus [19]): Active
- inhibition (Rattus norvegicus [20]): Active
- Activity (Rattus norvegicus [21]): Active
- inhibition (Rattus norvegicus [22]): Active
- inhibition (Rattus norvegicus [23]): Active
- inhibition (Rattus norvegicus [25]): Active
- Activity (Rattus norvegicus [26]): 20.72 mmHg
- Ratio (Rattus norvegicus [27]): 0.3656
- inhibition (Rattus norvegicus [30]): Active
- inhibition (Rattus norvegicus [31]): Active
- Activity (Rattus norvegicus [32]): 44.75 mmHg
- inhibition (Rattus norvegicus [34]): Active
- inhibition (Rattus norvegicus [35]): Active
- Activity (Rattus norvegicus [36]): Active
- inhibition (Rattus norvegicus [37]): Active
- inhibition (Rattus norvegicus [38]): Active
- inhibition (Rattus norvegicus [39]): Active
